Literature values, collected in US10359349B2, “Use of focused light scattering techniques in biological applications” (AIDIA INVESTMENT GROUP, INC., priority 2008, dated 2019).

System: platelets
Conditions: platelet inhibition in arterial thrombophilic diseases; share of drug-treated patients whose platelets are not inhibited

In the case of `CC(=O)Oc1ccccc1C(=O)O` [ASA, Aspirin], the “treated patients who do not respond to treatment” value is given as “Approximately 25%”.

For `COC(=O)[C@H](c1ccccc1Cl)N1CCc2sccc2C1` [Plavix, clopidogrel bisulfate], the “treated patients who do not respond to treatment” value is given as about 29%.
